Three compounds from ChEMBL document CHEMBL5226300, “Synthetic Approaches to the New Drugs Approved during 2019” (J Med Chem, 2021) can be followed below.

For series [1], the target named is Voltage-dependent calcium channel subunit alpha-2/delta-2 (Homo sapiens) (UniProt Q9NY47).
Description: Binding affinity to human alpha2delta2 Voltage-dependent calcium channel assessed as dissociation half life
The target in series [2] is Voltage-dependent calcium channel subunit alpha-2/delta-1 (Homo sapiens) (UniProt P54289). In words: Binding affinity to human alpha2delta1 Voltage-dependent calcium channel assessed as dissociation half life.
A short description of series [3]: Half life in human. The format is ADME.
Series [4] concerns the target T1, Sodium/glucose cotransporter 2 (Homo sapiens, UniProt P31639).
T1 sequence (P31639 whole entry): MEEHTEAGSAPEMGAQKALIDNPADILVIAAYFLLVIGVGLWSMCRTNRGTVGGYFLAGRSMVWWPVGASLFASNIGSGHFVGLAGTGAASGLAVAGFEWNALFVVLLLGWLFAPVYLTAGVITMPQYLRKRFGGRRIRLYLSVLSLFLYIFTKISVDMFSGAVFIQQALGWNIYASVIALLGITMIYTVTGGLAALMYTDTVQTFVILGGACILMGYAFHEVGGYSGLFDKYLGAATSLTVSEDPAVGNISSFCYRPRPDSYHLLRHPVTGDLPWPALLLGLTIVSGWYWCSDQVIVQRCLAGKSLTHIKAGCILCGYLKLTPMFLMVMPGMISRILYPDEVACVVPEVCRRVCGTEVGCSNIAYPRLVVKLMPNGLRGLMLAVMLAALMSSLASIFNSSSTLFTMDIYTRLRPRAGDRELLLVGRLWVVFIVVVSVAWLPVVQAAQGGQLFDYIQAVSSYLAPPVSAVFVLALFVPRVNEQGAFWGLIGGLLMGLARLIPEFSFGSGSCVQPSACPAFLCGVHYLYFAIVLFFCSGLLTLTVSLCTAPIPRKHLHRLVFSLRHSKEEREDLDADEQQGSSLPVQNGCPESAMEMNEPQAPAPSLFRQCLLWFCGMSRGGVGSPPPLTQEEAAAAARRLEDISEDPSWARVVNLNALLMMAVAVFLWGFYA
Nature of the series: Inhibition of SGLT2 (unknown origin).

Voltage-dependent calcium channel subunit alpha-2/delta-1 (Homo sapiens), sequence (P54289 25-956 limits assumed): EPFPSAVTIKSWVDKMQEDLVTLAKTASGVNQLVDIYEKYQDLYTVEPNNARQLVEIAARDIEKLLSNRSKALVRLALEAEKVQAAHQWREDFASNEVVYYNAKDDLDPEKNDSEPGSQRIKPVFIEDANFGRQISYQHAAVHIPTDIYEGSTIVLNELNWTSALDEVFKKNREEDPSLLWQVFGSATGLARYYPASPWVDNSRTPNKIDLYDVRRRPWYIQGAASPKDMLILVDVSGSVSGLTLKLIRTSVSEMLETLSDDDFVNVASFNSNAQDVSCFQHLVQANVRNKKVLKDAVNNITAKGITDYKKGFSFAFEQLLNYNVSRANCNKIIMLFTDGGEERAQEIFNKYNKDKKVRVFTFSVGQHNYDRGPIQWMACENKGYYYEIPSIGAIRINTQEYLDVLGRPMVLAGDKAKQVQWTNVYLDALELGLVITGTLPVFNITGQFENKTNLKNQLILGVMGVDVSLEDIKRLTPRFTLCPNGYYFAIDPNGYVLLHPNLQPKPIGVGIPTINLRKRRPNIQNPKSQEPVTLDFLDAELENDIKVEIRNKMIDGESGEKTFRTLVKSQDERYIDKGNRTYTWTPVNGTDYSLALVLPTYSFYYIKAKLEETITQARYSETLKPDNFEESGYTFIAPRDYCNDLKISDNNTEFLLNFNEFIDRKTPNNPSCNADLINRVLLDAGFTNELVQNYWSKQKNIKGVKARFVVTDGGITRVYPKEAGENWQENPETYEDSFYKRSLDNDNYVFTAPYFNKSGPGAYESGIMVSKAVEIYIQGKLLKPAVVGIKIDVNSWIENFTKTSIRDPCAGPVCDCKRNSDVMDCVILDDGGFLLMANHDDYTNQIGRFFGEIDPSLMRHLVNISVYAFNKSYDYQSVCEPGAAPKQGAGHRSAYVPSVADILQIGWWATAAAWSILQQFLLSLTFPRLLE
Voltage-dependent calcium channel subunit alpha-2/delta-1 (Homo sapiens), sequence (P54289 957-1103 limits assumed): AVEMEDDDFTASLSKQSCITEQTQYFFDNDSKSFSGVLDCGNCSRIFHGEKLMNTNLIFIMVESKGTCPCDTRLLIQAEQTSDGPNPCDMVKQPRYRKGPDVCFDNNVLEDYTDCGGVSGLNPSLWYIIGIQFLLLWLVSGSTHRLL
Voltage-dependent calcium channel subunit alpha-2/delta-2 (Homo sapiens), sequence (Q9NY47 19-1001 limits assumed): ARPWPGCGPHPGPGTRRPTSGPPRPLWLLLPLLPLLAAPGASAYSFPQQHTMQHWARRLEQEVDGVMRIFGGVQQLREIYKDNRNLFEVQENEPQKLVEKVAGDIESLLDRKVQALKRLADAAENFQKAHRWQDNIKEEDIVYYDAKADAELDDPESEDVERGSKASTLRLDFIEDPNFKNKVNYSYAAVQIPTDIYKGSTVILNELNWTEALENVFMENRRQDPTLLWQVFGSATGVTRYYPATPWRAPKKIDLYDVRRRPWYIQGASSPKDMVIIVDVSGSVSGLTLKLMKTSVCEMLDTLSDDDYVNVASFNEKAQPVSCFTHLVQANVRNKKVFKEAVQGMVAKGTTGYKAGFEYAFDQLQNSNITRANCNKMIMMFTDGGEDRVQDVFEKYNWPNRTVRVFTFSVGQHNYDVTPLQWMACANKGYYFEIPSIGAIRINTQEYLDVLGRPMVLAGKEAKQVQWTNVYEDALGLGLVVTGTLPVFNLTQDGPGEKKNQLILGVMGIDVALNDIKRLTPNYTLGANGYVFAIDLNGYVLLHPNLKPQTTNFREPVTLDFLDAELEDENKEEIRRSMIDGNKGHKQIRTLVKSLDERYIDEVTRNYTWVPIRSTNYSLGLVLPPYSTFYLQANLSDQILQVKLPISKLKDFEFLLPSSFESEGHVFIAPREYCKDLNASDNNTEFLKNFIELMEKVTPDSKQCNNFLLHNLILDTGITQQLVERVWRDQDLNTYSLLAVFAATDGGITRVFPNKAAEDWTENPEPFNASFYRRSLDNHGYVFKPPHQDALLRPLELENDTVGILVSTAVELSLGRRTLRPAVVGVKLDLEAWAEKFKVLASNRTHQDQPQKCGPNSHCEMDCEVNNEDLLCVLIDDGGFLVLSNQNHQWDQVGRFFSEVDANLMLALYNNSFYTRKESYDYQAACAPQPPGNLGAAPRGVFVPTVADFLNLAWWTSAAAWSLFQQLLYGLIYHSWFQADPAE
Voltage-dependent calcium channel subunit alpha-2/delta-2 (Homo sapiens), sequence (Q9NY47 1002-1150 limits assumed): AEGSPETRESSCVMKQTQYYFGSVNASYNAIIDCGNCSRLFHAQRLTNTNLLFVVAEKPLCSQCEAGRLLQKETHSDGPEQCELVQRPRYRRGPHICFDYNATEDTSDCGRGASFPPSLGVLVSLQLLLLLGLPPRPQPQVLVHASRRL

On to `CC(C)C[C@H](CN)CC(=O)O`, for which the T1/2 in series [1] and in series [2] was 1.5 h throughout.

Regarding `CCC1=C[C@@H]2[C@H](C1)C[C@]2(CN)CC(=O)O`, the T1/2 in series [2] is more than 11 h.

In series [3], `CCOC(=O)OC[C@H]1O[C@@H](Oc2nn(C(C)C)c(C)c2Cc2ccc(OC(C)C)cc2)[C@H](O)[C@@H](O)[C@@H]1O` [REMOGLIFLOZIN ETABONATE] gave a half-life of 2 h. Also, the affinity in series [4] corresponds to a Ki of 12.4 nM.
